Measured values as given in patent publication EP4624465A1, “COMPOUND SERVING AS DDR1 KINASE INHIBITOR, AND MEDICINE” (Nippon Shinyaku Co., Ltd., priority 2022, dated 2024).

Experiments:
[1] = biological target: T1, DDR1 kinase (Homo sapiens, UniProt Q08345); assay: Evaluation of DDR1 kinase inhibition in DDR1-expressing U2OS cells (type I collagen stimulation, PathHunter detection); format: cell-based; set-up: host or cells: U2OS; conditions: type I collagen 50 µg/mL stimulation, duplicate, read-out: DDR-1 IC50
Target sequence in this assay (Q08345 19-913): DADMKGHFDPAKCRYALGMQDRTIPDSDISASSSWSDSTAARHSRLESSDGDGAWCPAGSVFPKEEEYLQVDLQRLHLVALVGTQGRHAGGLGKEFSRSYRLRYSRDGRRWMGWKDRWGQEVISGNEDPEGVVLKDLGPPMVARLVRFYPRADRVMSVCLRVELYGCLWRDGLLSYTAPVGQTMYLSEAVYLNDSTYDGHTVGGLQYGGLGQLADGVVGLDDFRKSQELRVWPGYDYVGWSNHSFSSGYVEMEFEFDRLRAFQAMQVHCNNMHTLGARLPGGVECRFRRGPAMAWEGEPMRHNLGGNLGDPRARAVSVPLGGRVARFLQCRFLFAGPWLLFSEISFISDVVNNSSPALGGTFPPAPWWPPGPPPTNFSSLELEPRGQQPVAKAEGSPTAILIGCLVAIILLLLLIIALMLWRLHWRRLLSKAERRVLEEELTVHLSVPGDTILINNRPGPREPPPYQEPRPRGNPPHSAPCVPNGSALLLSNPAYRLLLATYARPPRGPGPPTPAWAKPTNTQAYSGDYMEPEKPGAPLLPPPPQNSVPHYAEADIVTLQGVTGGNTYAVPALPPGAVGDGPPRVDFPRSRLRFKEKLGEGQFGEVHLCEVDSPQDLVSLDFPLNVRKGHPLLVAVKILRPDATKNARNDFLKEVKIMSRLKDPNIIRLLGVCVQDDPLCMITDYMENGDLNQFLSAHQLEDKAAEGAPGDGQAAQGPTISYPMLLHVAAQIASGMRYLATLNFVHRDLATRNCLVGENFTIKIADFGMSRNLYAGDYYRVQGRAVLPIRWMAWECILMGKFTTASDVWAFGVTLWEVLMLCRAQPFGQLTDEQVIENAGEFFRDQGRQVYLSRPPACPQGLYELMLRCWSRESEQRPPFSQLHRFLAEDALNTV

[2] = system: anti-glomerular basement membrane antibody-induced nephritis model; assay: In vivo drug efficacy in an anti-glomerular basement membrane antibody-induced nephritis model (urinary albumin); conditions: twice daily for 7 days, WKY/NCrlCrlj rats, antibody untreated group = 0%, medium-treated group = 100%
[3] = biological target: T1, DDR1 kinase; assay: Evaluation of DDR1 kinase inhibition (LANCE Ultra TR-FRET kinase assay); format: biochemical; set-up: purchased Carna Biosciences 08-113; conditions: DDR1 protein 0.5 nM, LANCE Ultra ULight-poly GAT substrate, 2 hours at room temperature, duplicate; read-out: DDR-1 IC50
Target sequence in this assay (Q08345 19-876 isoform Q08345-2 limits assumed): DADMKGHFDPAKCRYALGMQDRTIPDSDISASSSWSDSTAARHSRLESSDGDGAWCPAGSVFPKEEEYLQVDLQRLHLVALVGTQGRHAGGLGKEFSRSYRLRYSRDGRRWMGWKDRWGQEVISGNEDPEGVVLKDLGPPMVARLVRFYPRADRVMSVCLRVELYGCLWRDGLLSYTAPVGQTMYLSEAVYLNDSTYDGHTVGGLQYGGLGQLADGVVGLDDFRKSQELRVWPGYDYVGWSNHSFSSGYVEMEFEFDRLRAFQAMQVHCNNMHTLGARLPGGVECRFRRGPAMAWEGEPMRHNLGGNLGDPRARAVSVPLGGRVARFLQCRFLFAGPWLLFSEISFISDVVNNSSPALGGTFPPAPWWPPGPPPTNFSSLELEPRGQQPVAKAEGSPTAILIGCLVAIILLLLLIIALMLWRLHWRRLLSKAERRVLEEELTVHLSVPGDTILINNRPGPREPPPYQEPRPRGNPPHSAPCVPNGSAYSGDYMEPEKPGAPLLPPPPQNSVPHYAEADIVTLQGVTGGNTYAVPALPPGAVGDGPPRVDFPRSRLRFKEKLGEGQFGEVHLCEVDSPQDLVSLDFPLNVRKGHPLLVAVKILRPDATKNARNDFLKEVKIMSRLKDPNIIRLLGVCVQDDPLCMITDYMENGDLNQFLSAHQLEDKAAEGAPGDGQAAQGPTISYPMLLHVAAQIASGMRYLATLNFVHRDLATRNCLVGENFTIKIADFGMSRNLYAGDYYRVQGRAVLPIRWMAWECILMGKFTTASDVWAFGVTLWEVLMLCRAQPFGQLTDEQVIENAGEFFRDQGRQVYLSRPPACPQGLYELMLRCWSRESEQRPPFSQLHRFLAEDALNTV

Row | Compound | IC50 [1] | Amount (%) of albumin in urine compared with medium-treated group ([2]; Dose 200 mg/kg) | IC50 [3] | Amount (%) of albumin in urine compared with medium-treated group ([2]; Dose 100 mg/kg)
1 | Cl.Nc1cc(C(=O)N2CC(c3nn(CC(=O)N4CCC[C@H]4C(F)(F)F)c4cc(F)cc(F)c34)C2)ccn1 [Compound E-2, 2-{3-[1-(2-aminopyridine-4-carbonyl)azetidin-3-yl]-4,6-difluoro-1H-indazol-1-yl}-1-[(2S)-2-(trifluoromethyl)pyrrolidin-1-yl]ethan-1-one hydrochloride] | 37 nM | 73% | 1.6 nM | 
2 | Nc1cc(C(=O)N2CC(c3nn(CC(=O)N4CCC[C@H]4C(F)(F)F)c4ccccc34)C2)c(F)cn1 [Compound E-3, 2-{3-[1-(2-amino-5-fluoropyridine-4-carbonyl)azetidin-3-yl]-1H-indazol-1-yl}-1-[(2S)-2-(trifluoromethyl)pyrrolidin-1-yl]ethan-1-one] | 53 nM |  | 0.4 nM | 67%
3 | CN(CC1CC1)C(=O)Cn1nc(C2CN(C(=O)c3ccnc(N)c3)C2)c2ccccc21 [Compound E-229, 2-{3-[1-(2-aminopyridine-4-carbonyl)azetidin-3-yl]-1H-indazol-1-yl}-N-(cyclopropylmethyl)-N-methylacetamide] | 81 nM |  | 6 nM | 
4 | N#C[C@@H]1CCCN1C(=O)Cn1nc(C2CN(C(=O)c3cc(N)ncc3F)C2)c2ccccc21 [Compound E-236] | 120 nM |  | 4.8 nM | 
5 | Nc1cc(C(=O)N2CC(c3nn(CC(=O)N4CC(F)(F)C[C@H]4CF)c4ccccc34)C2)c(F)cn1 [Compound E-237, 2-{3-[1-(2-amino-5-fluoropyridine-4-carbonyl)azetidin-3-yl]-1H-indazol-1-yl]-1-[(2S)-4,4-difluoro-2-(fluoromethyl)pyrrolidin-1-yl]ethan-1-one] | 34 nM |  | 3.8 nM | 
6 | CN(CC(F)(F)F)C(=O)Cn1nc(C2CN(C(=O)c3cc(N)ncc3F)C2)c2ccccc21 [Compound E-240, 2-{3-[1-(2-amino-5-fluoropyridine-4-carbonyl)azetidin-3-yl}-1H-indazol-1-yl}-N-methyl-N-(2,2,2-trifluoroethyl)acetamide] | 140 nM |  | 5 nM | 
7 | Nc1cc(C(=O)N2CC(c3nn(CC(=O)NCC(F)F)c4cccc(F)c34)C2)ccn1 [Compound E-242, 2-{3-[1-(2-aminopyridine-4-carbonyl)azetidin-3-yl]-4-fluoro-1H-indazol-1-yl}-N-(2,2-difluoroethyl)acetamide] | 740 nM |  | 30 nM | 
8 | N#CC1(NC(=O)Cn2nc(C3CN(C(=O)c4cc(N)ncc4F)C3)c3ccccc32)CC1 [Compound E-244, 2-{3-{1-(2-amino-5-fluoropyridine-4-carbonyl)azetidin-3-yl]-1H-indazol-1-yl}-N-(1-cyanocyclopropyl)acetamide] | 420 nM |  | 41 nM | 
9 | Cn1nccc1NC(=O)Cn1nc(C2CN(C(=O)c3cc(N)ncc3F)C2)c2ccccc21 [Compound E-247, 2-{3-[1-(2-amino-5-fluoropyridine-4-carbonyl)azetidin-8-yl]-1H-indazol-1-yl}-N-(1-methyl-1H-pyrazol-5-yl)acetamide] | 300 nM |  | 47 nM | 
10 | Nc1cc(C(=O)N2CC(c3nn(CC(=O)NC4CC4(F)F)c4ccccc34)C2)c(F)cn1 (stereo not drawn) [Compound E-248, 2-{3-[1-(2-amino-5-fluoropyridine-4-carbonyl)azetidin-3-yl]-1H-indazol-1-yl}-N-(2,2-difluorocyclopropyl)acetamide] | 510 nM |  | 11 nM | 
11 | CN(C(=O)Cn1nc(C2CN(C(=O)c3cc(N)ncc3F)C2)c2ccccc21)C1CC(F)(F)C1 [Compound E-250, 2-{3-[1-(2-amino-5-fluoropyridine-4-carbonyl)azetidin-3-yl]-1H-indazol-1-yl}-N-(3,3-difluorocyclobutyl)-N-methylacetamide] | 17 nM |  | 2 nM | 
12 | Nc1cc(C(=O)N2CC(c3nn(CC(=O)N(CC(F)(F)F)C4CC4)c4ccccc34)C2)c(F)cn1 [Compound E-251, 2-{3-[1-(2-amino-5-fluoropyridine-4-carbonyl)azetidin-3-yl]-1H-indazol-1-yl}-N-cyclopropyl-N-(2,2,2-trifluoroethyl)acetamide] | 19 nM |  | 2.5 nM | 
13 | CC(C)N(C)C(=O)Cn1nc(C2CN(C(=O)c3cc(N)ncc3F)C2)c2ccccc21 [Compound E-253, 2-{3-[1-(2-amino-5-fluoropyridine-4-carbonyl)azetidin-3-yl]-1H. indazol-1-yl}-N-methyl-N-(propan-2-yl)acetamide] | 170 nM |  | 9.5 nM | 
14 | CN(C(=O)Cn1nc(C2CN(C(=O)c3cc(N)ncc3F)C2)c2ccccc21)C1COC1 [Compound E-254, 2-{3-{1-(2-amino-5-fluoropyridine-4-carbonyl)azetidin-3-yl]-1H-indazol-1-yl}-N-methyl-N-(oxetan-3-yl)acetamide] | 390 nM |  | 21 nM | 
15 | CN(C(=O)Cn1nc(C2CN(C(=O)c3cc(N)ncc3F)C2)c2ccccc21)C1CCOCC1 [Compound E-255, 2-{8-[1-(2-amino-5-fluoropyridine-4-carbonyl)azetidin-8-yl]-1H-indazol-1-yl}-N-methyl-N-(oxan-4-yl)acetamide] | 180 nM |  | 22 nM | 
16 | Nc1cc(C(=O)N2CC(c3nn(CC(=O)N4CCC(F)(F)CC4)c4ccccc34)C2)c(F)cn1 [Compound E-257, 2-{3-[1-(2-amino-5-fluoropyridine-4-carbonyl)azetidin-3-yl]-1H-indazol-1-yl}-1-(4,4-difluoropiperidin-1-yl)ethan-1-one] | 42 nM |  | 13 nM | 
17 | C[C@H](N(C)C(=O)Cn1nc(C2CN(C(=O)c3cc(N)ncc3F)C2)c2ccccc21)C(F)(F)F [Compound E-261, 2-{3-[1-(2-amino-5-fluoropyridine-4-carbonyl)azetidin-3-yl]-1H-indazol-1-yl}-N-methyl-N-[(2S)-1,1,1-trifluoropropan-2-yl]acetamide] | 6 nM |  | 4.6 nM | 
18 | C[C@@H](N(C)C(=O)Cn1nc(C2CN(C(=O)c3cc(N)ncc3F)C2)c2ccccc21)C(F)(F)F [Compound E-262, 2-{3-[1-(2-amino-5-fluoropyridine-4-carbonyl)azetidin-3-yl]-1H-indazol-1-yl}-N-methyl-N-[(2R)-1,1,1-trifluoropropan-2-yl]acetamide] | 20 nM |  | 9.3 nM | 
19 | CCN(CC)C(=O)Cn1nc(C2CN(C(=O)c3cc(N)ncc3F)C2)c2ccccc21 [Compound E-263, 2-{3-[1-(2-amino-5-fluoropyridine-4-carbonyl)azetidin-3-yl]-1H-indazol-1-yl}-N,N-diethylacetamide] | 65 nM |  | 15 nM | 
20 | CN(CC(F)F)C(=O)Cn1nc(C2CN(C(=O)c3cc(N)ncc3F)C2)c2ccccc21 [Compound E-269, 2-{3-[1-(2-amino-5-fluoropyridine-4-carbonyl)azetidin-3-yl]-1H-indazol-1-yl}-N-(2,2-difluoroethyl)-N-methylacetamide] | 38 nM |  | 4.8 nM | 
21 | Nc1cc(C(=O)N2CC(c3nn(CC(=O)N4CCC[C@H]4C(F)F)c4ccccc34)C2)c(F)cn1 [Compound E-272, 2-{3-[1-(2-amino-5-fluoropyridine-4-carbonyl)azetidin-3-yl]-1H-indazol-1-yl}-1-[(2S)-2-(difluoromethyl)pyrrolidin-1-yl]ethan-1-one] | 3 nM |  | 1.4 nM | 
22 | Nc1cc(C(=O)N2CC(c3nn(CC(=O)N4CCC[C@H]4C(F)(F)F)c4cc(F)ccc34)C2)c(F)cn1 [Compound E-275, 2-{3-[1-(2-amino-5-fluoropyridine-4-carbonyl)azetidin-3-yl]-6-fluoro-1H-indazol-1-yl}-1-[(2S)-2-(trifluoromethyl)pyrrolidin-1-yl]ethan-1-one] | 21 nM |  | 4.8 nM | 
23 | CN(CC(F)(F)F)C(=O)Cn1nc(C2CN(C(=O)c3nc(N)ncc3F)C2)c2ccccc21 [Compound E-276, 2-{3-[1-(2-amino-5-fluoropyrimidine-4-carbonyl)azetidin-3-yl)-1H-indazol-1-yl}-N-methyl-N-(2,2,2-trifluoroethyl)acetamide] | 430 nM |  | 19 nM | 
